In patent US6469028B1, “Synthesis and use of retinoid compounds having negative hormone and/or anatgonist activities” (Allergan, Inc., priority 1995, dated 2002):
Like-named read-outs stand apart in the source and are kept apart here.

How the values were obtained:
[1] = tested on: hairless mice; assay: Example 2: skin irritation and weight loss by oral agonist, topical antagonist; format: in vivo
Protocol: Mice were simultaneously treated topically on the dorsal skin with vehicle (97.6% acetone/2.4% dimethylsulfoxide) or solutions of AGN 193109 in vehicle (6 ml/kg). Specific doses for the different treatment groups are give in Table 8. Treatments were administered daily for 4 consecutive days. Mice were weighed and graded for topical irritation daily as described in Example 1 up to and including 1 day after the last treatment. Percent body weight change is calculated by subtracting […], dividing by initial body weight, and multiplying by 100%. Topical irritation scores are calculated as described in Example 1.

[2] = Example 3: recovery from preexisting retinoid toxicity (body weight); format: in vivo, mice
Protocol: Groups of these same mice (n=5) were then treated topically either with vehicle or AGN 193109 in vehicle (4 ml/kg) daily for 3 consecutive days beginning on day 3. Mice were weighed on days 1-5 and on day 8. Body weights are expressed as the mean±SD. Means were compared statistically using an unpaired, two-tailed t-test. Differences were considered significant at P<0.05.

[3] = tested on: guinea pigs; assay: Example 5: premature epiphyseal plate closure (bone toxicity); format: in vivo; conditions: AGN 191183 0.06 mg/ml + AGN 193109 0.34 mg/ml (5-fold molar excess), osmotic pump, 14 days
Protocol: The osmotic pumps are designed by the manufacturer to deliver ˜5 μl of solution per hour continuously for 14 days.
The animals were euthanized by carbon dioxide asphyxiation 14 days after implantation. The left tibia was removed and placed in 10% buffered formalin. The tibias were decalcified by exposure to a formic acid/formalin solution for 3-4 days, and paraffin sections were prepared. Sections were stained with hematoxylin and eosin by standard methods. The proximal tibial epiphyseal plate was examined and scored as closed or not closed. Epiphyseal plate closure is defined for this purpose as any interruption of the continuity of the epiphyseal growth plate cartilage, i.e., replacement by bone and/or fibroblastic tissue.

[4] = tested on: RXRs; assay: Affinity for the RXRs; format: binding
[5] = tested on: cultured cervical carcinoma cells; assay: Example 23: cultured cervical carcinoma cells from a patient biopsy; format: cell-based; conditions: 10^−10 to 10^−6 M
From the text: A patient presenting with an advanced cervical carcinoma is first identified. A cervical biopsy is obtained according to methods that will be familiar to one having ordinary skill in the art. Cells from the explanted tumor are propagated in tissue culture according to standard techniques to provide cell numbers sufficient to allow division into three sample groups. Culture conditions described by Agarwal et al. in Cancer Res. 54:2108 (1994) are employed for this purpose. The first group is reserved as a control and receives vehicle alone (ethanol). The second group is treated with the RAR agonist retinoic acid at a concentration of from 10^−10 to 10^−6 M. The third group is treated with AGN 193109 at doses ranging from 10^−10 to 10^−6 M. Cells are fed with fresh growth medium daily and are provided with the retinoids described above as appropriate for each sample group. Cells are counted after three days using an electric cell counter.

[6] = tested on: cervical carcinoma patients; assay: Example 23: clinical study in cervical carcinoma patients with metastatic disease; format: in vivo, human; conditions: maximum tolerated dose every other day, three months to one year
Protocol: Patients are divided into two groups. The first group is a control group while members of the second group are treated with AGN 193109. AGN 193109 is combined with a pharmaceutically acceptable excipient to produce a composition suitable for systemic administration, all according to techniques that will be familiar to one having ordinary skill in the art. The control group is administered a placebo formulation and the experimental group is administered with the formulation containing the AGN 193109 negative hormone. Dosing of patients is at the maximum tolerated dose and is performed every other day for a period of from three months to one year. The outcome of the study is quantified via measurement of disease-free survival over time.

[7] = target: T1, RARα (Homo sapiens, UniProt P10276); assay: [3H]-ATRA displacement assay, baculovirus expressed receptor; format: binding; parameters: made in house; host or cells: baculovirus expression system
T1 sequence (P10276 1-462): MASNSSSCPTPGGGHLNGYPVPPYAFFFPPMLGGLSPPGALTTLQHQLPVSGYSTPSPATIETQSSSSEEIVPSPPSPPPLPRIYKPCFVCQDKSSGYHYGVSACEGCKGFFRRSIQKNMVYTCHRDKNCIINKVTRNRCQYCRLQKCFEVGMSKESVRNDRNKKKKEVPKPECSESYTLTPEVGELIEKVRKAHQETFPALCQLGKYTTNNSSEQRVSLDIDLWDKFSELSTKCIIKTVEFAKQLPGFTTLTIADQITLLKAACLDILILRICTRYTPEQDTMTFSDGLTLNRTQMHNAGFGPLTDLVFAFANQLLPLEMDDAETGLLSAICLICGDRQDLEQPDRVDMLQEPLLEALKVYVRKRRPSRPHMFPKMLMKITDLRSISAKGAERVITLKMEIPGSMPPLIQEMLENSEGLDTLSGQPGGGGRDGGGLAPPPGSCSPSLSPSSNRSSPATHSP

[8] = target: T1, RARα; assay: Example 7: inhibition of RAR transactivation by ATRA, CV-1 cells; format: cell-based; parameters: host or cells: TNT-coupled reticulocyte lysate in vitro transcription-translation; conditions: equal doses of AGN 193109 and ATRA (10 nM ATRA)
Protocol: Eukaryotic expression vectors pRShRAR-α (Giguere et al. Nature 330:624 (1987)), pRShRAR-β (Benbrook et al. Nature 333:669 (1988)) and pRShRAR-γ (Ishikawa et al. Mol. Endocrinol. 4:837 (1990)) were cotransfected with the Δ-MTV-Luc reporter plasmid described by Hollenberg et al. (Cell 55:899.(1988)). […] Calcium phosphate transfections were carried out exactly as described in Example 6. […] Cell lysates and luciferase activity measurements were also performed as in Example 6.

[9] = group E: topical AGN 193109 0.47 mg/kg/d alone
[10] = topical AGN 191183 0.13 mg/kg/d days 1-2, then topical AGN 193109 days 3-5, mean±SD

SMILES: Cc1ccc(C2=CCC(C)(C)c3ccc(C#Cc4ccc(C(=O)O)cc4)cc32)cc1 [Compound 60, 4-[(5,6-dihydro-5,5-dimethyl-8-(4-methylphenyl)-2-naphthalenyl)ethynyl]benzoic acid]
- Topical Irritation Score ([1]; group C: topical AGN 193109 […] + oral AGN 191183 0.26 mg/kg/d): 1 ± 1
- % Weight Gain or (Loss) ([1]; group C: topical AGN 193109 […] + oral AGN 191183 0.26 mg/kg/d, parentheses = loss): (9 ± 5) %
- Topical Irritation Score ([1]; group D: topical AGN 193109 0.47 mg/kg/d + oral AGN 191183 0.26 mg/kg/d): 0 ± 1
- % Weight Gain or (Loss) ([1]; group D: topical AGN 193109 0.47 mg/kg/d + oral AGN 191183 0.26 mg/kg/d, parentheses = loss): (3 ± 5) %
- % Weight Gain or (Loss) [1, 9]: 3 ± 3%
- Topical Irritation Score [1, 9]: 0 ± 0
- body weight relative to vehicle treatment ([2]; after AGN 191183-induced weight loss, t-test, P<0.05): significantly increased body weight relative to vehicle treatment on days 4 and 5
- Body Weight (g) DAY 1 [2, 10]: 23.9 ± 1.0 g
- Body Weight (g) DAY 2 [2, 10]: 23.5 ± 1.2 g
- Body Weight (g) DAY 3 [2, 10]: 21.4 ± 0.6 g
- Body Weight (g) DAY 4 [2, 10]: 22.2 ± 0.7 g
- Body Weight (g) DAY 5 [2, 10]: 22.8 ± 0.8 g
- Body Weight (g) DAY 8 [2, 10]: 25.0 ± 1.1 g
- epiphyseal plate closure [3]: completely blocked AGN 191183-induced bone toxicity
- affinity for the RXRs [4]: no measurable affinity
- cell number after three days [5]: dose-dependent decrease in cell number
- disease-free survival [6]: significant increase in disease-free survival
- Kd ([7]; Table 11, read-out: Kd (nM) RAR-α): 2 nM
- Kd ([7]; as stated in Example 8, read-out: Kd at RAR-α): 10 nM
- inhibition of luciferase activity relative to ATRA alone [8]: greater than 50%
